Test results as given in PMC7006622 (2019).

What was measured:
[1] = tested on: TWJ molecular switch for 17β-estradiol (B5/G14 split aptamer, with FP1 and CP1) (DNA, aptamer) TAGGGTGCGGCTCTGCGCATTCAATTGCTGCGCGCTGAAGCGCGGAAGCCCGTACTCTATGAGCCTCTG/GCTTCCAGCTTATTGAATTACACGCAGAGGGTACCGTGT/AAACACGGATCCCATA; test: single-molecule TIRF, fluorescent probe binding kinetics; conditions: 1× PBS; apparent; read from calibration curve of probe kon,F and koff,F against Kd; oxygen scavenger system; surface-immobilised DNA
[2] = tested on: TWJ molecular switch for ATP (B3/G12 split aptamer, with FP1 and CP1) (DNA, aptamer) TGGGATTGGAAGGAGGCGTCCGTACTCTATGAGCCTCTG/TATGAGGGGGTCCACCGTGT/AAACACGGATCCCATA; test: single-molecule TIRF, transient binding of fluorescent probe; conditions: 1× PBS; qualitative; oxygen scavenger system; surface-immobilised DNA

SMILES	Kd [1]	binding [2]
C[C@]12CC[C@@H]3c4ccc(O)cc4CC[C@H]3[C@@H]1CC[C@@H]2O	18 nM	–
Nc1ncnc2c1ncn2[C@@H]1O[C@H](COP(=O)(O)OP(=O)(O)OP(=O)(O)O)[C@@H](O)[C@H]1O	–	yes
